The IC50 is the concentration that inhibits the measured activity by half.

Chain of SHP2 (Q06124 whole entry): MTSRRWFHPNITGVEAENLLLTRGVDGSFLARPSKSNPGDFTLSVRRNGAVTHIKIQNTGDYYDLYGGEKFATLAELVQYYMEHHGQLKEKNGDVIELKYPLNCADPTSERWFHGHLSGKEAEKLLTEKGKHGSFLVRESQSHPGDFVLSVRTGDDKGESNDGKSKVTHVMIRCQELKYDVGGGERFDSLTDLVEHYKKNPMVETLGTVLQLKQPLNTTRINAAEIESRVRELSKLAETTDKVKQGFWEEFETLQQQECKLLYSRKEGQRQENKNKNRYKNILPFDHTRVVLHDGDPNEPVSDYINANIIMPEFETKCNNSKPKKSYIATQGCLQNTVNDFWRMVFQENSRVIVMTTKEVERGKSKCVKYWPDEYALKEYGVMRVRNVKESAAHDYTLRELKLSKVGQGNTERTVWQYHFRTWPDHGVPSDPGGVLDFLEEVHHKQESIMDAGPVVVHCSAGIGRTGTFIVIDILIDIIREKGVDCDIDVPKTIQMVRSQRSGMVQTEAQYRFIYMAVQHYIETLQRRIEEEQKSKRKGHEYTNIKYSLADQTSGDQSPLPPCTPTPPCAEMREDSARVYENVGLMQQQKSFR

This test addresses SHP2 (Homo sapiens (Human), UniProt Q06124). As to the kind of experiment: SHP2 Allosteric Inhibition Assay (DiFMUP prompt fluorescence). It is filed as biochemical. Conditions: 0.25 nM SHP2 activated with 0.5 μM peptide IRS1_pY1172(dPEG8)pY1222; substrate DiFMUP 100 μM; 25° C.
Molecule `C[C@@H]1OCC2(CCN(c3cnc4c(N5CCCc6nc(-c7cncs7)ccc65)n[nH]c4n3)CC2)[C@@H]1N` [Compound 356] had an IC50 of less than 1000 nM. The molecule `CC1c2ccccc2CCN1c1n[nH]c2nc(N3CCC4(CC3)CO[C@@H](C)[C@H]4N)cnc12` (stereo partly drawn) [Compound 357] showed an IC50 of less than 1000 nM.

`C[C@@H]1OCC2(CCN(c3cnc4c(N5CCc6cccc(-c7cnn(C)c7)c6C5)n[nH]c4n3)CC2)[C@@H]1N` [Compound 358]: the IC50 was no less than 10000 nM.

Regarding `C[C@@H]1OCC2(CCN(c3cnc4c(N5CCc6cccc(C#N)c6C5)n[nH]c4n3)CC2)[C@@H]1N` [Compound 359], the IC50 is 1000 to 10000 nM. In turn, `CCC(=O)N1CCN(c2n[nH]c3nc(N4CCC5(CC4)CO[C@@H](C)[C@H]5N)cnc23)c2ccccc21` [Compound 360] gave an IC50 of less than 1000 nM. `Cc1csc(-c2ccc3c(n2)CCCN3c2n[nH]c3nc(N4CCC5(CC4)CO[C@@H](C)[C@H]5N)cnc23)n1` [Compound 361]: the IC50 is less than 1000 nM.

Turning to `CNC(=O)c1ccc2c(n1)[C@@H](C)CCN2c1n[nH]c2nc(N3CCC4(CC3)CO[C@@H](C)[C@H]4N)cnc12` [Compound 362, (8S)-5-{6-[(3S,4S)-4-amino-3-methyl-2-oxa-8-azaspiro[4.5]decan-8-yl]-1H-pyrazolo[3,4-b]pyrazin-3-yl}-N,8-dimethyl-5,6,7,8-tetrahydro-1,5-naphthyridine-2-carboxamide], the IC50 is less than 1000 nM. `CNC(=O)c1ccc2c(n1)[C@H](C)CCN2c1n[nH]c2nc(N3CCC4(CC3)CO[C@@H](C)[C@H]4N)cnc12` [Compound 363, (8R)-5-{6-[(3S,4S)-4-amino-3-methyl-2-oxa-8-azaspiro[4.5]decan-8-yl]-1H-pyrazolo[3,4-b]pyrazin-3-yl}-N,8-dimethyl-5,6,7,8-tetrahydro-1,5-naphthyridine-2-carboxamide] displayed an IC50 of less than 1000 nM. For `C[C@@H]1OCC2(CCN(c3cnc4c(N5CC[C@H](C)c6nc(C(=O)N(C)C)ccc65)n[nH]c4n3)CC2)[C@@H]1N` [Compound 364, (8S)-5-{6-[(3S,4S)-4-amino-3-methyl-2-oxa-8-azaspiro[4.5]decan-8-yl]-1H-pyrazolo[3,4-b]pyrazin-3-yl}-N,N,8-trimethyl-5,6,7,8-tetrahydro-1,5-naphthyridine-2-carboxamide], the concentration for half-maximal inhibition (IC50) was less than 1000 nM. `C[C@@H]1OCC2(CCN(c3cnc4c(N5CCCc6cc(-c7cnn(C)c7)ccc65)n[nH]c4n3)CC2)[C@@H]1N` [Compound 365] came in with an IC50 of less than 1000 nM. `CNC(=O)c1ccc2c(c1)N(C)CCN2c1n[nH]c2nc(N3CCC4(CC3)CO[C@@H](C)[C@H]4N)cnc12` [Compound 366, 1-{6-[(3S,4S)-4-amino-3-methyl-2-oxa-8-azaspiro[4.5]decan-8-yl]-1H-pyrazolo[3,4-b]pyrazin-3-yl}-N,4-dimethyl-1,2,3,4-tetrahydroquinoxaline-6-carboxamide] had an IC50 of less than 1000 nM. For `C[C@@H]1OCC2(CCN(c3cnc4c(N5CCN(C)c6c5cccc6S(C)(=O)=O)n[nH]c4n3)CC2)[C@@H]1N` [Compound 367] the value was less than 1000 nM; for `CCS(=O)(=O)c1cccc2c1CCCN2c1n[nH]c2nc(N3CCC4(CC3)CO[C@@H](C)[C@H]4N)cnc12` [Compound 368], less than 1000 nM. `C[C@@H]1OCC2(CCN(c3cnc4c(N5CCCc6c5cccc6P(C)(C)=O)n[nH]c4n3)CC2)[C@@H]1N` [Compound 369] gave an IC50 of less than 1000 nM. For `C[C@@H]1OCC2(CCN(c3cnc4c(N5CCCc6nc(-c7cnn(C8COC8)c7)ccc65)n[nH]c4n3)CC2)[C@@H]1N` [Compound 372, (3S,4S)-3-methyl-8-(3-{6-[1-(oxetan-3-yl)-1H-pyrazol-4-yl]-1,2,3,4-tetrahydro-1,5-naphthyridin-1-yl}-1H-pyrazolo[3,4-b]pyrazin-6-yl)-2-oxa-8-azaspiro[4.5]decan-4-amine] the value was less than 1000 nM. The molecule `C[C@@H]1OCC2(CCN(c3cnc4c(N5CCCc6c5cccc6[N+](=O)[O-])n[nH]c4n3)CC2)[C@@H]1N` [Compound 373] yielded an IC50 of less than 1000 nM.

In the case of `C[C@@H]1OCC2(CCN(c3cnc4c(N5CCCc6c5cccc6N(C)S(C)(=O)=O)n[nH]c4n3)CC2)[C@@H]1N` [Compound 374], the IC50 was less than 1000 nM. `C[C@@H]1OCC2(CCN(c3cnc4c(N5CCCc6c(N)cccc65)n[nH]c4n3)CC2)[C@@H]1N` [Compound 375, (3S,4S)-8-[3-(5-amino-1,2,3,4-tetrahydroquinolin-1-yl)-1H-pyrazolo[3,4-b]pyrazin-6-yl]-3-methyl-2-oxa-8-azaspiro[4.5]decan-4-amine] showed an IC50 of less than 1000 nM.

As to `CC(=O)Nc1cccc2c1CCCN2c1n[nH]c2nc(N3CCC4(CC3)CO[C@@H](C)[C@H]4N)cnc12` [Compound 376, N-(1-{6-[(3S,4S)-4-amino-3-methyl-2-oxa-8-azaspiro[4.5]decan-8-yl]-1H-pyrazolo[3,4-b]pyrazin-3-yl}-1,2,3,4-tetrahydroquinolin-5-yl)acetamide], the IC50 is less than 1000 nM. In turn, `C[C@@H]1OCC2(CCN(c3cnc4c(N5CCN(C)c6nc(Cl)ccc65)n[nH]c4n3)CC2)[C@@H]1N` [Compound 377] returned an IC50 of less than 1000 nM.

As to `C[C@@H]1OCC2(CCN(c3cnc4c(N5CCCc6nc(O)ccc65)n[nH]c4n3)CC2)[C@@H]1N` [Compound 378], the IC50 was less than 1000 nM. As for `Cc1cccc2c1N(C1CC1)CCN2c1n[nH]c2nc(N3CCC4(CC3)CO[C@@H](C)[C@H]4N)cnc12` [Compound 379], the IC50 was less than 1000 nM. To `C[C@@H]1OCC2(CCN(c3cnc4c(N5CCCc6nc(-c7cnoc7)ccc65)n[nH]c4n3)CC2)[C@@H]1N` [Compound 380, (3S,4S)-3-methyl-8-{3-[6-(1,2-oxazol-4-yl)-1,2,3,4-tetrahydro-1,5-naphthyridin-1-yl]-1H-pyrazolo[3,4-b]pyrazin-6-yl}-2-oxa-8-azaspiro[4.5]decan-4-amine] belongs less than 1000 nM.

On to `Cc1cnc(-c2ccc3c(n2)CCCN3c2n[nH]c3nc(N4CCC5(CC4)CO[C@@H](C)[C@H]5N)cnc23)s1` [Compound 382], for which the IC50 was less than 1000 nM. For `C[C@@H]1OCC2(CCN(c3cnc4c(N5CCN(C)c6nc(C#N)ccc65)n[nH]c4n3)CC2)[C@@H]1N` [Compound 383] the value was less than 1000 nM. Molecule `Cc1cccc2c1N(C)CCN2c1n[nH]c2nc(N3CCC4(CC3)CO[C@@H](C)[C@H]4N)cnc12` [Compound 384] registered an IC50 of less than 1000 nM. For the molecule `CC1Cc2ccccc2C(=O)N1c1n[nH]c2nc(N3CCC4(CC3)CO[C@@H](C)[C@H]4N)cnc12` (stereo partly drawn) [Compound 385], the IC50 is no less than 10000 nM. `C[C@@H]1OCC2(CCN(c3cnc4c(N5CCCc6c(C#N)cccc65)n[nH]c4n3)CC2)[C@@H]1N` [Compound 386]: the IC50 was less than 1000 nM. The molecule `CC(C)N1CCN(c2n[nH]c3nc(N4CCC5(CC4)CO[C@@H](C)[C@H]5N)cnc23)c2cccnc21` [Compound 387] came in with an IC50 of less than 1000 nM. Take `C[C@@H]1OCC2(CCN(c3cnc4c(N5CCCc6c5ccc(C#N)c6S(C)(=O)=O)n[nH]c4n3)CC2)[C@@H]1N` [Compound 388]: the IC50 lay within 1000 to 10000 nM.

With `Cc1nnc(-c2cccc3c2CCCN3c2n[nH]c3nc(N4CCC5(CC4)CO[C@@H](C)[C@H]5N)cnc23)o1` [Compound 389], the IC50 was less than 1000 nM. Regarding `COCc1cccc2c1CCCN2c1n[nH]c2nc(N3CCC4(CC3)CO[C@@H](C)[C@H]4N)cnc12` [Compound 390], the IC50 was less than 1000 nM. As for `COC(=O)N1CCN(c2n[nH]c3nc(N4CCC5(CC4)CO[C@@H](C)[C@H]5N)cnc23)c2ccccc21` [Compound 391], the IC50 is less than 1000 nM.
